Results as given in patent US20250082557A1, “COMPOSITION FOR ENHANCING SKIN VITALITY CONTAINING A THYMOL ESTER-BASED COMPOUND” (Amorepacific Corporation, priority 2023, published 2025).

Experiments:
[1] = system: skin fibroblasts; test: Mitochondrial activity: maximal oxygen consumption rate (OCR), Seahorse XF cell mitochondrial stress test; format: cell-based
Excerpt: Specifically, the Seahorse XF Pro analyzer equipment from Agilent was used, and the mitochondrial activity (ATP energy production efficiency), i.e., the maximal oxygen consumption rate (OCR), was observed according to the standard protocol provided with the Seahorse XF cell mitochondrial stress measurement kit provided by the company (FIG. 2).

[2] = system: mitophagy marker genes (VDAC, Parkin, PINK); test: Expression of mitophagy marker genes (VDAC, Parkin, PINK) by RT-PCR; format: cell-based; conditions: fibroblasts, hydrocortisone 10 μM and MELASOLV 5.5 μg/ml for 24 hours; FIGS. 3 to 5
Experimental: Fibroblasts were seeded in 10 cm^2 cell culture dishes at a concentration of 3×10^5 cells/dish and cultured in 10 ml of minimum essential medium eagle (MEM) medium containing 10% fetal bovine serum (FBS) and 1% penicillin streptomycin. After 24 hours, the cells reached approximately 70%, and the cells were treated with (1) DMSO (control), (2) hydrocortisone (10 μM) alone, or (3) hydrocortisone (10 μM) and MELASOLV™ (5.5 μg/ml) for 24 hours.
RNA was extracted with easy-BLUE (INTRON) reagent. cDNA samples were generated from 0.5 μg of RNA using PrimeScript RT reagent Kit. The generated cDNA was amplified using ACCUPOWER™ PCR Premix. The PCR products were further analyzed using PCR Thermal Cycler Dice.
It was confirmed through a […] in the expression of mitophagy marker genes (VDAC, Parkin, PINK) whether it contributes to the activation of mitophagy which removes unnecessary elements from mitochondria.

[3] = hydrocortisone 10 uM 24 hours, MELASOLV 5 ppm 24 hours, FIG. 2

C[C@]12CCC(=O)C=C1CC[C@@H]1[C@@H]2[C@@H](O)C[C@@]2(C)[C@H]1CC[C@]2(O)C(=O)CO [hydrocortisone, reference compound]
cell respiration rate (OCR) compared to the control group (Ctrl) ([1]; hydrocortisone 10 uM 24 hours alone (stress-induced condition)): reduced

COc1cc(/C=C/C(=O)Oc2cc(C)ccc2C(C)C)cc(OC)c1OC [MELASOLV™, (5-methyl-2-propan-2-ylphenyl) (E)-3-(3,4,5-trimethoxyphenyl) prop-2-enoate]
expression of mitophagy genes (VDAC, Parkin, PINK) [2]: increased
maximal respiration (OCR) compared to the control group not treated with anything [1, 3]: increased higher
maximal respiration (maximal oxygen consumption rate, OCR) compared to treatment with only hydrocortisone [1, 3]: statistically significantly higher
cell respiration rate (OCR) reduced by hydrocortisone, effect of treatment ([1]; hydrocortisone 10 uM, MELASOLV 5 ppm 24 hours): recovered
